Data on 4 compounds can be found in ChEMBL document CHEMBL4732198, “HDAC7 Inhibition by Phenacetyl and Phenylbenzoyl Hydroxamates” (J Med Chem, 2021).

Usually IC50 stands for the point on the concentration scale where inhibition reaches its midpoint. What is called half-life is how long it takes for the measured level to halve.

Data set [1] deals with T1, Class 1 histone deacetylase (Homo sapiens, UniProt Q13547+O15379+Q92769+Q9BY41). In words: Inhibition of Class 1 histone deacetylase in human THP-1 cells using Ac-LGK(Ac)-AMC as substrate incubated for 3 hrs followed by 50 uM SAHA addition and measured after 1 hr by fluorescence based assay. The data set is classed as cell-based.
A further data set deals with T2, Histone deacetylase 8 (Homo sapiens, UniProt Q9BY41).
T2 sequence (Q9BY41 whole entry): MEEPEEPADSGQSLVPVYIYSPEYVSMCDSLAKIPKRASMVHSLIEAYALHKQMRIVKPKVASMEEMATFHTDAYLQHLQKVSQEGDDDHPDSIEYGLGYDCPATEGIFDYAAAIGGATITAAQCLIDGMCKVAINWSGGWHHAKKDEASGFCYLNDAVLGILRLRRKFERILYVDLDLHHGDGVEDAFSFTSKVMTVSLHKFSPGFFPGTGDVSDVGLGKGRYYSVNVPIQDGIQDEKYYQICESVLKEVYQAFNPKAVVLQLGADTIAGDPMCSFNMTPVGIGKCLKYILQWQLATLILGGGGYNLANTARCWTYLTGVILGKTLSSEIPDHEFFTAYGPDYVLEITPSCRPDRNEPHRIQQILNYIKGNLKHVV
In words: Inhibition of recombinant human HDAC8 using Ac-LGK(TFA)-AMC as substrate preincubated for 30 mins followed by substrate addition and measured after 90 mins by fluorescence based assay.

Data set [2] is described as follows: Inhibition of Class 2a histone deacetylase in human THP-1 cells using Ac-LGK(TFA)-AMC as substrate incubated for 3 hrs followed by 50 uM SAHA addition and measured after 1 hr by fluorescence based assay. The data set is classed as cell-based.
A short description of data set [3]: Metabolic stability in Sprague-Dawley rat liver microsomes assessed as half life at 5 uM preincubated for 5 mins followed by NADPH addition and measured after 60 mins by LCMS analysis. The data set is classed as ADME, Microsome. The settings on record: time 65 min.
The nature of data set [4]: Solubility of compound in PEG400 in PBS at 10 mg/ml. The data set is classed as physicochemical.
The target of the next data set is Histone deacetylase 9 (Homo sapiens, UniProt Q9UKV0). Briefly: Inhibition of recombinant human HDAC9 using Ac-LGK(TFA)-AMC as substrate preincubated for 15 mins followed by substrate addition and measured after 60 mins by fluorescence based assay.
Histone deacetylase 9, sequence (Q9UKV0 whole entry): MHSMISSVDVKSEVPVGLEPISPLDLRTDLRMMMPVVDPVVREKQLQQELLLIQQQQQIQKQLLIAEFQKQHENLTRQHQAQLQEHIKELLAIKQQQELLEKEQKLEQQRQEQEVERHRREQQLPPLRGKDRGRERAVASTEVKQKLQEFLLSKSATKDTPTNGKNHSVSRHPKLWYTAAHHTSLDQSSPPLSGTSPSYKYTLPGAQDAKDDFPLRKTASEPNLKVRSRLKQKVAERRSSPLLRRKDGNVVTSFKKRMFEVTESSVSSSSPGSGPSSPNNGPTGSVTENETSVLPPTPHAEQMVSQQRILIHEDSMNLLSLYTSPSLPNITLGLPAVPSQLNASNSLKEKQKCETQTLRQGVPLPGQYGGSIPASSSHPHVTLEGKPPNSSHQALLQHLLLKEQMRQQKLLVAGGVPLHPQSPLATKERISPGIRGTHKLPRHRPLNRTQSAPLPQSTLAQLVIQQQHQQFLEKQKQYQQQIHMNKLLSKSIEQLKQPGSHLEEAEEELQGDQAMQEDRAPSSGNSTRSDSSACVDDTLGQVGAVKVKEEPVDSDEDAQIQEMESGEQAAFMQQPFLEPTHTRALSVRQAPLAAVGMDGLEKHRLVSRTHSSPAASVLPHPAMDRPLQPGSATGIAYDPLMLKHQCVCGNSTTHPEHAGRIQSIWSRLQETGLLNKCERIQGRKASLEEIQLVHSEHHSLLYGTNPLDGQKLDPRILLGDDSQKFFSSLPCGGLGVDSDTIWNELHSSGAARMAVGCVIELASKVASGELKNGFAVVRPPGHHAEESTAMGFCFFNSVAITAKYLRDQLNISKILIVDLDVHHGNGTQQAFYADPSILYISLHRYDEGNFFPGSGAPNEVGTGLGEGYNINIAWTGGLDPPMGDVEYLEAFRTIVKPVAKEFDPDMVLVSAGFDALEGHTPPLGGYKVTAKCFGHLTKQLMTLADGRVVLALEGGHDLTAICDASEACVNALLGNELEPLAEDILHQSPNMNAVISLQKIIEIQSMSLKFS
The target in data set [5] is T3, Protein deacetylase HDAC6 (Homo sapiens, UniProt Q9UBN7).
T3 sequence (Q9UBN7 whole entry): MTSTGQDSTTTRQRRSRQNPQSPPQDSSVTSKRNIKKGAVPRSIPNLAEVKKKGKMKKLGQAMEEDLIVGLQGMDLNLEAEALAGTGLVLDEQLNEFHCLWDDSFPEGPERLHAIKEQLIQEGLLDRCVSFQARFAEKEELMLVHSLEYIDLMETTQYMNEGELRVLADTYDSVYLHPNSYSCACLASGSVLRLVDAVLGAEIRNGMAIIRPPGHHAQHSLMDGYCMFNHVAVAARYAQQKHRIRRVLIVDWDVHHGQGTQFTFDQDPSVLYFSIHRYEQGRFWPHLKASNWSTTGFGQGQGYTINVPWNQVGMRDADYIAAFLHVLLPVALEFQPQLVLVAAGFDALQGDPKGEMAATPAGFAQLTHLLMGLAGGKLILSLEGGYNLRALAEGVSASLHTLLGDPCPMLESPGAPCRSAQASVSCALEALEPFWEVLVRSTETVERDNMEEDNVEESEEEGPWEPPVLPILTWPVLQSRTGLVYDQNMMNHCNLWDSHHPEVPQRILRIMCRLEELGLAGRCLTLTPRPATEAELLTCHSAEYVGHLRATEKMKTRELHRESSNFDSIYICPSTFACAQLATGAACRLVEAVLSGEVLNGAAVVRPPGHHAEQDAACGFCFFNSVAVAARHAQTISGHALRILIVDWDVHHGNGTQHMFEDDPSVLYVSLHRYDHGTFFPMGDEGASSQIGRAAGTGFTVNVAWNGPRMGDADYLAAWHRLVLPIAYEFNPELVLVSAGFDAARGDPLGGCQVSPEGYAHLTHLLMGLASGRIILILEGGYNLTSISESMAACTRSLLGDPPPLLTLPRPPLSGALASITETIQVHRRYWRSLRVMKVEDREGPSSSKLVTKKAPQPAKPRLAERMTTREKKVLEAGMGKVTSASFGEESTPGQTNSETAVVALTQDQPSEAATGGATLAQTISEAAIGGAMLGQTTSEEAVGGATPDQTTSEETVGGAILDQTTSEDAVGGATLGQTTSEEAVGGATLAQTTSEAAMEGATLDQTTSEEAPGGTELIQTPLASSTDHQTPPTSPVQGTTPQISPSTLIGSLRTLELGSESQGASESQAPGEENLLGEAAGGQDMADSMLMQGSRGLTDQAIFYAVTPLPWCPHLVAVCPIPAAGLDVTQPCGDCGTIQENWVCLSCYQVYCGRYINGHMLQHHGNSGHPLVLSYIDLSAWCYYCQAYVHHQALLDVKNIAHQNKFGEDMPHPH
In words: Inhibition of recombinant human HDAC6 using Boc-Lys(Ac)-AMC as substrate pre-incubated for 15 mins followed by substrate addition and measured after 60 mins by fluorescence based assay.

Data set [6] relates to Macrophage. Briefly: Antiinflammatory activity in human monocytes-derived macrophages assessed as inhibition of LPS-induced IL-12p40 secretion at 30 uM pretreated for 1 hr followed by LPS stimulation and measured after 24 hrs by homogenous time-resolved fluorescence assay. The data set is classed as functional, cell-based. The settings on record: time 25.0 hrs.
The target of data set [7] is T1, Class 1 histone deacetylase. Briefly: Inhibition of Class 1 histone deacetylase in human THP-1 cells assessed as accumulation of Histone H4 acetylation levels at 1 to 10 uM incubated for 3 hrs by western blot analysis. The conditions noted are these: dose 1-10 µM. The data set is classed as cell-based. A general note: A western blot detects proteins with antibodies after separation by electrophoresis.

The test system of data set [8] is Macrophage. In words: Antiinflammatory activity in human monocytes-derived macrophages assessed as inhibition of LPS-induced CCL2 secretion at 30 uM pretreated for 1 hr followed by LPS stimulation and measured after 24 hrs by homogenous time-resolved fluorescence assay. It counts as functional, cell-based. The settings on record: time 25.0 hrs.
The test system of data set [9] is Macrophage. In words: Antiinflammatory activity in human monocytes-derived macrophages assessed as inhibition of LPS-induced IL-1alpha secretion at 30 uM pretreated for 1 hr followed by LPS stimulation and measured after 24 hrs by homogenous time-resolved fluorescence assay. It counts as functional, cell-based. The settings on record: time 25.0 hrs.
The subject of data set [10] is Macrophage. In words: Antiinflammatory activity in human monocytes-derived macrophages assessed as inhibition of LPS-induced IL-23 secretion at 30 uM pretreated for 1 hr followed by LPS stimulation and measured after 24 hrs by homogenous time-resolved fluorescence assay. The settings on record: time 25.0 hrs. It counts as functional, cell-based.
The target of another data set is Histone deacetylase 4 (Homo sapiens, UniProt P56524). In words: Inhibition of recombinant human HDAC4 using Ac-LGK(TFA)-AMC as substrate pre-incubated for 15 mins followed by substrate addition and measured after 60 mins by fluorescence based assay.
Histone deacetylase 4, sequence (P56524 whole entry): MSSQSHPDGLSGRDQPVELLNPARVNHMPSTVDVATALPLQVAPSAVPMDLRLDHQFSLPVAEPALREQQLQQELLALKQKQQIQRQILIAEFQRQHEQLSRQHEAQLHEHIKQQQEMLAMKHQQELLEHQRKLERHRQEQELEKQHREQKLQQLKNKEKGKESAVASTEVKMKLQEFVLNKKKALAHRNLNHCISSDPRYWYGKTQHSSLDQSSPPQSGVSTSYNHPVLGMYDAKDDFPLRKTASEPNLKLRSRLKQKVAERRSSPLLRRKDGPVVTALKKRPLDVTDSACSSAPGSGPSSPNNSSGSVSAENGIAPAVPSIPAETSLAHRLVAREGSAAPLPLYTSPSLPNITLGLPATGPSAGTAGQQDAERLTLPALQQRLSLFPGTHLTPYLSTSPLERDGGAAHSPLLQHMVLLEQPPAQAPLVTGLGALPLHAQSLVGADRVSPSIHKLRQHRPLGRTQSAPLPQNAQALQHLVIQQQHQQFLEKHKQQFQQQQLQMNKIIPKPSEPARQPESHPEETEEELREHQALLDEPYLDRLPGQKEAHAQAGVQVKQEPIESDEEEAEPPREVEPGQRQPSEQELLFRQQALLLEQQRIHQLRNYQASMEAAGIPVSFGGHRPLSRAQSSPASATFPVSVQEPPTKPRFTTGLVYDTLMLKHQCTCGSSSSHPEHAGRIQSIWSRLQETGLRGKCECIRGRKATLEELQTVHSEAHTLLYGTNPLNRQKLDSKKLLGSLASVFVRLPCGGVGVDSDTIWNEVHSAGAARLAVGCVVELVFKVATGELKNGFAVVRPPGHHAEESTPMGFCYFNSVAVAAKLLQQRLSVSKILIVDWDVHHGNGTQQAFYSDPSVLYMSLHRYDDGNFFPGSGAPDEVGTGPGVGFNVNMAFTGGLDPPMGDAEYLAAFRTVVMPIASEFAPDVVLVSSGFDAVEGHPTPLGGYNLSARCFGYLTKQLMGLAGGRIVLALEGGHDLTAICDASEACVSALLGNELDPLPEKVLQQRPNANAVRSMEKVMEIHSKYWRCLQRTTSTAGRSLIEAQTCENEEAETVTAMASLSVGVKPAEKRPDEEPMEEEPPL
The subject of data set [11] is Macrophage. In words: Antiinflammatory activity in human monocytes-derived macrophages assessed as inhibition of LPS-induced GM-CSF secretion at 30 uM pretreated for 1 hr followed by LPS stimulation and measured after 24 hrs by homogenous time-resolved fluorescence assay. The data set is classed as functional, cell-based. The settings on record: time 25.0 hrs.
For data set [12], the system named is Macrophage. In words: Antiinflammatory activity in human monocytes-derived macrophages assessed as inhibition of LPS-induced IL-6 secretion at 30 uM pretreated for 1 hr followed by LPS stimulation and measured after 24 hrs by homogenous time-resolved fluorescence assay. The data set is classed as functional, cell-based. The conditions noted are these: time 25.0 hrs.

Data set [13] can be described thus: Metabolic stability in Sprague-Dawley rat liver microsomes assessed as half life at 20 uM preincubated for 5 mins followed by NADPH addition and measured after 60 mins by LCMS analysis. It counts as ADME, Microsome. The conditions noted are these: time 65 min.
Another data set addresses Histone deacetylase 1 (Homo sapiens, UniProt Q13547). In words: Inhibition of recombinant human HDAC1 using Ac-LGK(Ac)-AMC as substrate preincubated for 30 mins followed by substrate addition and measured after 90 mins by fluorescence based assay.
In the next data set the target is Histone deacetylase 5 (Homo sapiens, UniProt Q9UQL6). Briefly: Inhibition of recombinant human HDAC5 using Ac-LGK(TFA)-AMC as substrate pre-incubated for 15 mins followed by substrate addition and measured after 60 mins by fluorescence based assay.
Histone deacetylase 5, sequence (Q9UQL6 whole entry): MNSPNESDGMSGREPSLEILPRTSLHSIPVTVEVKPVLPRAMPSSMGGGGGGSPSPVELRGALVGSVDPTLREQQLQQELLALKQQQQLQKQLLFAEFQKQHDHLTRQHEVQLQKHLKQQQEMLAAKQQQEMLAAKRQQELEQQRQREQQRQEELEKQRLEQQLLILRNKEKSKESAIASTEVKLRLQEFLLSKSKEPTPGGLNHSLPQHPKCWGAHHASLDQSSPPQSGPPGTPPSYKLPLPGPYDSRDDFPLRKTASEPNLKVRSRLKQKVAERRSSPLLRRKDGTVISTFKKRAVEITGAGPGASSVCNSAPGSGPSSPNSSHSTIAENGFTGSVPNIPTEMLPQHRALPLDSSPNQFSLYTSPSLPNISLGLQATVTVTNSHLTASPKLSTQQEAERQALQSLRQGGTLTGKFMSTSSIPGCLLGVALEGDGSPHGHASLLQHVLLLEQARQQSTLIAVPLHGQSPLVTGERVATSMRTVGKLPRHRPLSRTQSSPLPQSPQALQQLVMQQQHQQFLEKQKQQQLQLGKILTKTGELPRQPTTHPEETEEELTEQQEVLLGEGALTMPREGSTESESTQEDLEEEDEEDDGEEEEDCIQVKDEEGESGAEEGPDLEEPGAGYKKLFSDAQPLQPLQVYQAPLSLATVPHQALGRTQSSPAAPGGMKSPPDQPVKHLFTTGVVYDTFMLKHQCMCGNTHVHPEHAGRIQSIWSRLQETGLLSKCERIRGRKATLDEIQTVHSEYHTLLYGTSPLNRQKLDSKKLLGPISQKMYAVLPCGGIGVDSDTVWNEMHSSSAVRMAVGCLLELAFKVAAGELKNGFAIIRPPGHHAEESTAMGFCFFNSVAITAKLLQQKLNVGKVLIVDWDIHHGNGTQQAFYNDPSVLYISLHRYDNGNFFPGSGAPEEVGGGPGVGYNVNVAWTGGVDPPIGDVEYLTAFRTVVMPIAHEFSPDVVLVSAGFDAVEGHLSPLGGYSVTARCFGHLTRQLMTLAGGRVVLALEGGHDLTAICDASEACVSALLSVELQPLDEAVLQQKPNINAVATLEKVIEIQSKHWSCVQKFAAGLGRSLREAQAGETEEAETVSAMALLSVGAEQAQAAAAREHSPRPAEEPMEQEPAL

Calls of active or inactive are those of the source. No cut-off for these calls is given here. Some results are limits rather than exact numbers.

Histone deacetylase 1, sequence (Q13547 whole entry): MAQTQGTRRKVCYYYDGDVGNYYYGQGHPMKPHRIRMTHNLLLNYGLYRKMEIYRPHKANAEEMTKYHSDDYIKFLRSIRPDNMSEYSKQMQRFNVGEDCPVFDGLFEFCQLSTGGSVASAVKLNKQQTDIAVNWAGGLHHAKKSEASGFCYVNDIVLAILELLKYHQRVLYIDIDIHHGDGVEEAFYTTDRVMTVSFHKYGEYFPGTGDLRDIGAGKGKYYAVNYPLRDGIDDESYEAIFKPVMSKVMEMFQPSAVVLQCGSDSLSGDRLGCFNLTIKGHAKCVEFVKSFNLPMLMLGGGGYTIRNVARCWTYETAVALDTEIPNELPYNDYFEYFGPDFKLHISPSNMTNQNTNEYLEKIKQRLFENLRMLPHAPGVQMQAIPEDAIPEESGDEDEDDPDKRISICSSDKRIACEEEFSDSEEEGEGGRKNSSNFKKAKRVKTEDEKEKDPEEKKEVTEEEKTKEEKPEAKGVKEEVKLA

For `O=C(NO)c1ccc(CN2C(=O)c3ccccc3C2=O)cc1-c1ccccc1`, the IC50 is above 30000 nM in data set [1]; 72 nM on Histone deacetylase 8; 300 nM in data set [2]; 20 nM at Histone deacetylase 9; 6400 nM in data set [5]. Further, the half-life at 5 µM in data set [3] came to 0.917 h. The solubility entry in data set [4] is given as “Insoluble”.
With `O=C(NO)c1ccc(CN2C(=O)c3ccccc3S2(=O)=O)cc1-c1ccccc1`, the IC50 in data set [1] is above 30000 nM; at Histone deacetylase 8 it was 71 nM; in data set [2], 300 nM; on Histone deacetylase 4, 49 nM; at Histone deacetylase 9 it was 38 nM; in [5] it was 5300 nM. In addition, the result in the data set with Macrophage [6] was inactive. The inhibition result in [7] was “inactive”. In addition, in [3], the half-life at 5 µM was 3.83 h. Moreover, the outcome with Macrophage [8], in the data set on Macrophage [9], in the data set with Macrophage [10], in the data set with Macrophage [11] and in the data set with Macrophage [12] was Active. Moreover, in [4], the solubility result is reported as “Soluble”.
For the compound `O=C(NO)c1ccc(CN2C(=O)c3cccc(F)c3C2=O)cc1-c1ccccc1`, the IC50 in data set [1] was above 30000 nM; on Histone deacetylase 8, 88 nM; in [2] it was 300 nM; at Histone deacetylase 9, 46 nM; in [5] it was 4200 nM. For the same compound, the half-life at 5 µM in [3] was 8.08 h. Moreover, the solubility result in data set [4] is recorded as “Insoluble”.
`CC(C)(CNC(=O)c1cccc(-c2noc(C(F)(F)F)n2)c1)c1coc(-c2ccccc2)n1`: the IC50 was above 30000 nM in data set [1]; 2100 nM on Histone deacetylase 8; 3000 nM in [2]; 354 nM at Histone deacetylase 4; 45000 nM on Histone deacetylase 1; 16 nM on Histone deacetylase 9. Also, the IC50 at Histone deacetylase 5 came out at 216 nM. For the same compound, the result in the data set with Macrophage [6] was inactive. In addition, the inhibition entry in data set [7] was “inactive”. Moreover, the outcome in the data set with Macrophage [8], with Macrophage [9], in the data set with Macrophage [10], with Macrophage [11] and with Macrophage [12] was Active. For the same compound, in data set [13], the half-life at 20 µM worked out at 0.767 h.
